Measurements as given in patent US7625711B2, “Screening method for the identification of a drug for the development of an agent for prevention and/or treatment of Alzheimer's disease” (Hisamitsu Pharmaceutical Co., Inc., priority 2003, dated 2009).

Columns and labels:
Assay type in all cases: cell-based, human
[1] = system: βAPP-derived product and p53; experiment: Immunoprecipitation with anti-βAPP antibody and immunoblotting with anti-p53 antibody of cisplatin-treated SH-SY5Y cells; settings: SH-SY5Y cell lysate, IP anti-βAPP, IB anti-p53, FIG. 15
Description: (§1) Next, products obtained by cisplatin treatment of SH-SY5Y cells are analyzed by immunoblotting and immunoprecipitation. Specifically, SH-SY5Y cells are treated with cisplatin, and then the expression levels of p53, p21, βAPP and actin are analyzed by immunoblotting. Moreover, an interaction between a βAPP-derived product and p53 is analyzed by immunoprecipitation and immunoblotting. FIG. 15 is diagrams showing the result of immunoblotting analysis of products obtained by cisplatin treatment of SH-SY5Y cells. In the figure, “IP” means immunoprecipitation, and “IB” means immunoblotting. The second diagram from the top in FIG. 15 is a diagram showing the result of immunoblotting analysis using anti-p53 antibody. […] The third diagram from the top in FIG. 15 is a diagram showing the result of immunoblotting analysis using anti-p21 antibody. […] The uppermost diagram in FIG. 15 is a diagram showing the result of immunoprecipitation of a cell lysate (homogenate) using anti-βAPP antibody, and immunoblotting analysis of the immunoprecipitate using anti-p53 antibody. […] Since βAPP is present on the membrane and p53 is present in the nucleus, it is unlikely that there is physical binding therebetween.

[2] = system: p53; experiment: Immunoblotting of cisplatin-treated SH-SY5Y cells with anti-p53 antibody; settings: FIG. 15
Description: as §1

[3] = system: SH-SY5Y cells; experiment: Cell viability assay (MTT method) after cisplatin treatment; settings: SH-SY5Y cells treated with cisplatin, FIG. 14
Description: SH-SY5Y cells, which are a neuroblastoma cell line, are used as tumor cells. SH-SY5Y cells are treated with cisplatin, and then the cell viability is measured by the MTT method. FIG. 14 is a graph showing the relationship between the amount of cisplatin and the cell viability of SH-SY5Y cells. The cell viability was determined by a modified 3-(4,5-dimethylthiazol-2-yl)-2,5-diphenyltetrazolium bromide (MTT) assay. Specifically, […] cells were plated on 100 μl of complete medium in a 96-well micro titer plate (5×10^3 cells/well), and made to adhere thereto. On the next day, the medium was changed, and the cells were treated with cisplatin for 24 hours. In the MTT assay, 10 μl of MTT solution was added to each well, and incubated at 37° C. for 3 hours. The absorbance of the wells at 570 nm was measured using a microplate reader (Type 450, Bio-Rad Laboratories).

[4] = system: p21; experiment: Immunoblotting of cisplatin-treated SH-SY5Y cells with anti-p21 antibody; settings: FIG. 15
Description: as §1

Question: What does the source list for `N.N.[Cl][Pt][Cl]` [cisplatin]?
Answer: physical binding between a βAPP-derived product and p53 [1]: p53 is present in the cisplatin treatment group; induction of endogenous p53 [2]: the induction of endogenous p53 by cisplatin can be seen; cell viability of SH-SY5Y cells [3]: the number of SH-SY5Y cells decreases depending on the dosage of cisplatin; expression of p21 [4]: p53 expressed during the cisplatin treatment promotes the expression of p21
